Results as given in US11123355B2, “Antiviral benzyl-amine phosphodiamide compounds” (Merck Sharp & Dohme Corp., priority 2016, dated 2021).
Where two headings read alike, the source gives them in different places.

How the values were obtained:
HIV-1 (H9/IIB strain) = experiment: Multiple Round HIV-1 Infection Assay (Viking Assay) in MT4-GFP cells; type: cell-based; conditions: inhibition of reproductive ratio R0
How it was run: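 Inhibition of the reproductive ratio R0, derived from the rise in GFP-positive cells between ~48 h and ~72 h post-infection, was fitted by 4-parameter regression to give IC50. Cells infected at MOI ~0.01 were exposed to compound (typically 8.4 μM–0.42 nM final) in 10% or 50% normal human serum.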

[1] = Prodrug Stability Assay in Bio-Relevant Media (FaSSIF with Pancreatin); type: in vitro ADME; conditions: 0.5 mg/mL Pancreatin in FaSSIF, 37° C.; HPLC peak area of prodrug at 5 h divided by that at 0 h
Description: Prodrug Stability Assay in Bio-Relevant Media
The following assay was employed to evaluate the stability of the prodrugs in simulated gastrointestinal tract conditions. Preparation of fasted state simulated intestinal fluid (FaSSIF) using Phares SIF Powder was carried out according to protocols from Phare Drug Delivery AG (Baselland, Switzerland). For sample preparation, 10 μL stock solutions (10 mM) of prodrug substance in DMSO was added to 990 μL of 0.5 mg/mL Pancreatin solution (Fisher CAS #8049-47-6) in FaSSIF. Two samples were prepared for each compound. If the sample was a clear solution, it was directly analyzed by HPLC. If the sample was not clear, the sample was diluted with 100% MeCN, maintained at 37° C. and observed 5 h later. If the sample was clear, HPLC analysis was directly performed. If the sample was still not clear, the sample was diluted with 100% ACN and assayed by HPLC. All the samples were vortexed for 3 min and observed before injection. For the diluted samples, the area is multiplied by a dilution factor when the data is analyzed. The analysis was carried out with an Agilent 1100 series HPLC with autosampler. The column was a Poroshell 120 EC-C18, 4.6×50 mm, 2.7 μm. The flow rate was 1.8 mL/min, and the injection volume was 5 or 10 μL. UV detection was in the range 210-400 nm. The mobile phase consisted of solvent A (water plus 10 mM tetrabutylammonium bromide) and solvent B (acetonitrile) with a gradient of: 90% solvent A at 0 min, changing to 95% solvent B over 6 min, maintaining for 1.5 min, then reverting to 90% solvent A over 1.6 min. The HPLC peak area of the prodrug at 5 h was divided by the HPLC peak area of the prodrug at 0 h, to generate the % claimed parent ratio, which is summarized in Table 2 for gastrointestinal (GI) Tract stability.

[2] = Pharmacokinetic Studies in Dogs - In Vivo Dog PK; parameters: species or system beagle dogs; conditions: dog PBMCs at 24 h following a 10 mg/kg P.O. dose of the prodrug
Description: Pharmacokinetic Studies in Dogs—In Vivo Dog PK
Prodrugs were administered to beagle dogs through intravenous (IV) and oral (P.O.) administrations in a non-crossover manner. The IV dose was prepared in 20% hydroxypropyl β-cyclodextrin (HPBCD) or polyethylene glycol 200:ethanol:water (70:10:20 v/v/v). The dose was administered via cephalic or saphenous vein. The P.O. dose was prepared in 10% polysorbate 80 (Tween 80) and was administered via gavage.
Blood samples were serially collected following dose administration for up to 48 hr and plasma was separated by centrifugation. The concentrations of prodrugs in dog plasma were determined by a LC-MS/MS assay following a protein precipitation step and addition of an appropriate internal standard (labetalol, imipramine or diclofenac). Quantification was done by determining peak area-ratios of the prodrugs and tenofovir to the internal standard. Additional blood sample(s) was collected following dose administration for up to 24 hr. […] The concentrations of tenofovir and/or its phosphate conjugate(s) in PBMCs were determined by an LC-MS/MS assay following a protein precipitation step and addition of an appropriate internal standard (labetalol, imipramine or diclofenac). Quantification was done by determining peak area-ratios of tenofovir and/or its phosphate conjugate(s) to the internal standard.
Pharmacokinetic parameters were obtained using non-compartmental methods (Watson®). The area under the plasma concentration-time curve (AUC0-t) was calculated from the first time point (0 min) up to the last time point with measurable drug concentration using the linear trapezoidal or linear/log-linear trapezoidal rule. The IV plasma clearance was calculated by dividing the dose by AUC0-inf. The terminal half-life of elimination was determined by unweighted linear regression analysis of the log-transformed data. […] The volume of distribution at steady state (Vdss) was obtained from the product of plasma clearance and mean residence time (determined by dividing the area under the first moment curve by the area under the curve). […]

[3] = MT4-GFP cells infected with HIV-1, 10% normal human serum, read-out: Viking, IC50 (10% NHS)
[4] = MT4-GFP cells infected with HIV-1, 50% normal human serum, read-out: Viking, IC50 (50% NHS)
[5] = Human immunodeficiency virus 1, MT4-GFP cells infected with HIV-1, 10% normal human serum, read-out: Viking, IC50 (10% NHS)
[6] = Human immunodeficiency virus 1, MT4-GFP cells infected with HIV-1, 50% normal human serum, read-out: Viking, IC50 (50% NHS)

Compound | IC50 (HIV-1 (H9/IIB strain); [3]) [nM] | IC50 (HIV-1 (H9/IIB strain); [4]) [nM] | GI Tract stability (%) [1] [%] | In Vivo Dog PK (μM): TFV-DP concentrations in dog PBMCs [2] [µM] | IC50 (HIV-1 (H9/IIB strain); [5]) [nM] | IC50 (HIV-1 (H9/IIB strain); [6]) [nM]
CCCOC(=O)C(C)(C)N[P@@](=O)(CO[C@H](C)Cn1cnc2c(N)ncnc21)N[C@H](c1ccc(OC(F)(F)F)cc1)C(F)(F)F (single isomer, unassigned) [Example 27A] | 1.4 | 6.7 | 79.5 | 0.8 |  | 
CCCOC(=O)C(C)(C)NP(=O)(CO[C@H](C)Cn1cnc2c(N)ncnc21)N[C@@H](C)c1ccc(OC(F)(F)F)cc1 (stereo partly drawn) [Example 19A, propyl 2-(((R)-((((R)-1-(6-amino-9H-purin-9-yl)propan-2-yl)oxy)methyl)(((S)-1-(4-(trifluoromethoxy)phenyl)ethyl)amino)phos-phoryl)amino)-2-methylpropanoate and propyl 2-(((S)-((((R)-1-(6-amino-9H-purin-9-yl)propan-2-yl)oxy)methyl)(((S)-1-(4-(trifluoromethoxy)phenyl)ethyl)amino)phos-phoryl)amino)-2-methylpropanoate] | 2.7 | 12 | 98.1 |  |  | 
propyl 2-(((R)-((((R)-1-(6-amino-9H-purin- 9-yl)propan-2-yl)oxy)methyl)(((R)-2,2,2- trifluoro-1-(p- tolyl)ethyl)amino)phosphoryl)amino)-2- methylpropanoate and propyl 2-(((S)-((((R)-1-(6-amino-9H-purin- 9-yl)propan-2-yl)oxy)methyl)(((R)-2,2,2- trifluoro-1-(p- tolyl)ethyl)amino)phosphoryl)amino)-2- methylpropanoate [Example 26A] | 4.7 | 45 | 75.3 |  |  | 
CCCOC(=O)C(C)(C)NP(=O)(CO[C@H](C)Cn1cnc2c(N)ncnc21)N[C@H](C)c1ccc(Cl)cc1 (single isomer, unassigned) [Example 1B] |  |  | 98.7 |  | 4.7 | 36
CC(C)OC(=O)C(C)(C)N[P@@](=O)(CO[C@H](C)Cn1cnc2c(N)ncnc21)NC1(c2ccc(Cl)cc2)CC1 [Example 37B, isopropyl 2-(((R)-((((R)-1-(6-amino-9H-purin-9-yl)propan-2-yl)oxy)methyl)((1-(4-chlorophenyl)cyclopropyl)amino)phos-phoryl)amino)-2-methylpropanoate and isopropyl 2-(((S)-((((R)-1-(6-amino-9H-purin-9-yl)propan-2-yl)oxy)methyl)((1-(4-chlorophenyl)cyclopropyl)amino)phos-phoryl)amino)-2-methylpropanoate] | 5.1 | 30 | 21.1 |  |  | 
isopropyl 2-(((R)-((((R)-1-(6-amino-9H- purin-9-yl)propan-2-yl)oxy)methyl)((2-(4- chlorophenyl)propan-2- yl)amino)phosphoryl)amino)-2- methylpropanoate and isopropyl 2-(((S)-((((R)-1-(6-amino-9H- purin-9-yl)propan-2-yl)oxy)methyl)((2-(4- chlorophenyl)propan-2- yl)amino)phosphoroyl)amino)-2- methylpropanoate [Example 36A] | 3.2 | 37 | 20.2 |  |  | 
CCCOC(=O)C(C)(C)NP(=O)(CO[C@H](C)Cn1cnc2c(N)ncnc21)N[C@H](C)c1ccc(OC(F)(F)F)cc1C (stereo partly drawn) [Example 21B, Propyl 2-(((R)-((((R)-1-(6-amino-9H-purin-9-yl)propan-2-yl)oxy)methyl)(((R)-1-(2-methyl-4-(trifluoromethoxy)phenyl)ethyl)amino)phos-phoryl)amino)-2-methylpropanoate and propyl 2-(((S)-((((R)-1-(6-amino-9H-purin-9-yl)propan-2-yl)oxy)methyl)(((R)-1-(2-methyl-4-(trifluoromethoxy)phenyl)ethyl)amino)phos-phoryl)amino)-2-methylpropanoate] | 1 | 5.8 | 71.5 |  |  | 
CCCOC(=O)C(C)(C)NP(=O)(CO[C@H](C)Cn1cnc2c(N)ncnc21)N[C@H](c1cccc(OC)c1)C(F)(F)F (stereo partly drawn) [Example 25A, propyl 2-(((R)-((((R)-1-(6-amino-9H-purin-9-yl)propan-2-yl)oxy)methyl)(((R)-2,2,2-trifluoro-1-(3-methoxyphenyl)ethyl)amino)phosphoryl)a-mino)-2-methylpropanoate and propyl 2-(((S)-((((R)-1-(6-amino-9H-purin-9-yl)propan-2-yl)oxy)methyl)(((R)-2,2,2-trifluoro-1-(3-methoxyphenyl)ethyl)amino)phosphoryl)a-mino)-2-methylpropanoate] | 4.6 | 54 | 70.3 |  |  | 
CC(C)OC(=O)C(C)(C)NP(=O)(CO[C@H](C)Cn1cnc2c(N)ncnc21)N[C@H](C)c1ccc(OC(F)(F)F)cc1 (stereo partly drawn) [Example 34B, isopropyl 2-(((R)-((((R)-1-(6-amino-9H-purin-9-yl)propan-2-yl)oxy)methyl)(((R)-1-(4-(trifluoromethoxy)phenyl)ethyl)amino)phos-phoryl)amino)-2-methylpropanoate and isopropyl 2-(((S)-((((R)-1-(6-amino-9H-purin-9-yl)propan-2-yl)oxy)methyl)(((R)-1-(4-(trifluoromethoxy)phenyl)ethyl)amino)phos-phoryl)amino)-2-methylpropanoate] | 1.5 | 7.9 | 67.4 |  |  | 
CCCOC(=O)C(C)(C)N[P@@](=O)(CO[C@H](C)Cn1cnc2c(N)ncnc21)N[C@H](C)c1ccc(Cl)cc1C [Example 29B, propyl 2-(((R)-((((R)-1-(6-amino-9H-purin-9-yl)propan-2-yl)oxy)methyl)(((R)-1-(4-chloro-2-methylphenyl)ethyl)amino)phosphoryl)ami-no)-2-methylpropanoate and propyl 2-(((S)-((((R)-1-(6-amino-9H-purin-9-yl)propan-2-yl)oxy)methyl)(((R)-1-(4-chloro-2-methyphenyl)ethyl)amino)phosphoryl)ami-no)-2-methylpropanoate] | 2.5 | 21 | 12.1 |  |  | 
CCCOC(=O)C(C)(C)NP(=O)(CO[C@H](C)Cn1cnc2c(N)ncnc21)N[C@H](C)c1ccc(OC(F)(F)F)cc1 (single isomer, unassigned) [Example 3B] |  |  | 99.4 |  | 1.8 | 8.6
